Reference: patent publication US20160326142A1, “PYRAZOLE CARBOXAMIDE COMPOUNDS, COMPOSITIONS AND METHODS OF USE” (Genentech, Inc., priority 2012, published 2016)

target: T1, ITK (Homo sapiens, UniProt Q08881); experiment: ITK enzyme assay (Caliper or LCMS peptide phosphorylation); type: biochemical; conditions: purified ITK (Invitrogen PV3875), 20 μM ATP, Ki by Morrison's quadratic equation
T1 construct: purchased Invitrogen PV3875
T1 sequence (Q08881 1-620): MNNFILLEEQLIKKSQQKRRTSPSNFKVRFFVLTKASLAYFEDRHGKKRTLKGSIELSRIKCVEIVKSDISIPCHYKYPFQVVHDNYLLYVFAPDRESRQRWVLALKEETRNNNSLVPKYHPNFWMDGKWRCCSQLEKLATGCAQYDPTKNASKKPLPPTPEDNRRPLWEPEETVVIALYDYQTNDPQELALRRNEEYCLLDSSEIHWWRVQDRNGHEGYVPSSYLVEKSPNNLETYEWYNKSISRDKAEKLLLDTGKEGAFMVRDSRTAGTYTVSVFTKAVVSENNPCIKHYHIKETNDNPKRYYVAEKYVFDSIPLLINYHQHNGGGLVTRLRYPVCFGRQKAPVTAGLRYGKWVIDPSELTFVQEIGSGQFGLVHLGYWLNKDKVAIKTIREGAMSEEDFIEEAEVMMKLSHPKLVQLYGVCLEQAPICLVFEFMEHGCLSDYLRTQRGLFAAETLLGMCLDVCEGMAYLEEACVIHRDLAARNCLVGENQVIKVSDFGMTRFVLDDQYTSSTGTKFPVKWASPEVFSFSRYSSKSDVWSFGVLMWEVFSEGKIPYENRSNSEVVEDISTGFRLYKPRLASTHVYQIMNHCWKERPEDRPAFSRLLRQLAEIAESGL
Protocol: The ability of purified ITK (Invitrogen PV3875) to catalyze peptide phosphorylation is monitored using a Caliper LabChip 3000 microfluidic unit (Caliper assay) or by liquid chromatography-mass spectrometry (LCMS) using a Waters Acquity system (LCMS assay). […] Reactions are quenched by the addition of 2,2′,2″,2′″-(ethane-1,2-diyldinitrilo)tetraacetic acid (50 mM final). Non-phosphorylated substrate and phosphorylated product peptides are separated and quantified using a Caliper LabChip 3000 instrument. […] Reactions are quenched by the addition of trichloroacetic acid (5% v/v final). Non-phosphorylated substrate and phosphorylated product peptides are separated by ultra performance LC and detected by a coupled triple quadrupole MS device applying multiple reaction monitoring (MRM) for quantification. The area of the MRM-extracted mass signal is used to assess the inhibition by test compounds. Equilibrium dissociation constant (Ki) values for ITK inhibitors are calculated from plots of activity vs. inhibitor concentration using Morrison's quadratic equation that accounts for the potential of tight binding, and by also applying the conversion factor that accounts for competitive inhibition and the concentration of ATP used in the assay relative to its apparent Michaelis constant (Km,app).

Compared with `Cn1cc(C(c2ccccc2)n2cc(NC(=O)c3n[nH]c4c3C3CC3CC4)cn2)cn1` (single isomer, unassigned) [Example 35a, N-(1-((1-methyl-1H-pyrazol-4-yl)(phenyl)methyl)-1H-pyrazol-4-yl)-3,4,5,5a,6,6a-hexahydro cyclopropa[e]indazole-1-carboxamide], `CN1CC(C(c2ccccc2)n2cc(NC(=O)c3n[nH]c4c3CCC(C)(C)C4)cn2)C1` (single isomer, unassigned) [Example 38a, 6,6-dimethyl-N-(1-((1-methylazetidin-3-yl)(phenyl)methyl)-1H-pyrazol-4-yl)-4,5,6,7-tetrahydro-1H-indazole-3-carboxamide] is 3.2-fold lower in Ki: 13 nM for the first, 4 nM for the second. The second binds more tightly here.

Compared with `Cn1cc(C(c2ccccc2)n2cc(NC(=O)c3n[nH]c4c3C3CC3CC4)cn2)cn1` (single isomer, unassigned) [Example 35b, N-(1-((1-methyl-1H-pyrazol-4-yl)(phenyl)methyl)-1H-pyrazol-4-yl)-3,4,5,5a,6,6a-hexahydro cyclopropa[e]indazole-1-carboxamide], `CN1CC(C(c2ccccc2)n2cc(NC(=O)c3n[nH]c4c3CCC(C)(C)C4)cn2)C1` (single isomer, unassigned) [Example 38b, 6,6-dimethyl-N-(1-((1-methylazetidin-3-yl)(phenyl)methyl)-1H-pyrazol-4-yl)-4,5,6,7-tetrahydro-1H-indazole-3-carboxamide] is 4-fold lower in Ki: 2 nM for the first, 0.5 nM for the second. The second binds more tightly here.

Compared with `Cn1cc(C(c2ccccc2)n2cc(NC(=O)c3n[nH]c4c3C3CC3CC4)cn2)cn1` (single isomer, unassigned) [Example 35c, N-(1-((1-methyl-1H-pyrazol-4-yl)(phenyl)methyl)-1H-pyrazol-4-yl)-3,4,5,5a,6,6a-hexahydro cyclopropa[e]indazole-1-carboxamide], `CN1CCC(C(c2ccccc2)n2cc(NC(=O)c3n[nH]c4c3CCC(C)(C)C4)cn2)CC1` (single isomer, unassigned) [Example 43a, 6,6-dimethyl-N-(1-((1-methylpiperidin-4-yl)(phenyl)methyl)-1H-pyrazol-4-yl)-4,5,6,7-tetrahydro-1H-indazole-3-carboxamide] is 1100-fold lower in Ki: 220 nM for the first, 0.2 nM for the second. The second binds more tightly here.

First: Cn1cc(C(c2ccccc2)n2cc(NC(=O)c3n[nH]c4c3C3CC3CC4)cn2)cn1 (single isomer, unassigned) [Example 35d, N-(1-((1-methyl-1H-pyrazol-4-yl)(phenyl)methyl)-1H-pyrazol-4-yl)-3,4,5,5a,6,6a-hexahydro cyclopropa[e]indazole-1-carboxamide]
Second: CN1CCC(C(c2ccccc2)n2cc(NC(=O)c3n[nH]c4c3CCC(C)(C)C4)cn2)CC1 (single isomer, unassigned) [Example 43b, 6,6-dimethyl-N-(1-((1-methylpiperidin-4-yl)(phenyl)methyl)-1H-pyrazol-4-yl)-4,5,6,7-tetrahydro-1H-indazole-3-carboxamide]
The Ki of the first is 31-fold higher: 190 nM for the first, 6.2 nM for the second.

Compared with `CC(=O)N1CC(C(c2ccccc2)n2cc(NC(=O)c3n[nH]c4c3CCC(C)(C)C4)cn2)C1` (single isomer, unassigned) [Example 37a, N-(1-((1-acetylazetidin-3-yl)(phenyl)methyl)-1H-pyrazol-4-yl)-6,6-dimethyl-4,5,6,7-tetrahydro-1H-indazole-3-carboxamide], `CC1(C)CCc2c(C(=O)Nc3cnn(C(c4ccccc4)C4CN(S(C)(=O)=O)C4)c3)n[nH]c2C1` (single isomer, unassigned) [Example 45a, 6,6-dimethyl-N-(1-((1-(methylsulfonyl)azetidin-3-yl)(phenyl)methyl)-1H-pyrazol-4-yl)-4,5,6,7-tetrahydro-1H-indazole-3-carboxamide] is 26-fold higher in Ki: 14 nM for the first, 370 nM for the second. The first binds more tightly here.

First: CC(=O)N1CC(C(c2ccccc2)n2cc(NC(=O)c3n[nH]c4c3CCC(C)(C)C4)cn2)C1 (single isomer, unassigned) [Example 37b, N-(1-((1-acetylazetidin-3-yl)(phenyl)methyl)-1H-pyrazol-4-yl)-6,6-dimethyl-4,5,6,7-tetrahydro-1H-indazole-3-carboxamide]
Second: CC1(C)CCc2c(C(=O)Nc3cnn(C(c4ccccc4)C4CN(S(C)(=O)=O)C4)c3)n[nH]c2C1 (single isomer, unassigned) [Example 45b, 6,6-dimethyl-N-(1-((1-(methylsulfonyl)azetidin-3-yl)(phenyl)methyl)-1H-pyrazol-4-yl)-4,5,6,7-tetrahydro-1H-indazole-3-carboxamide]
The Ki of the first is 24-fold lower: 2 nM for the first, 48 nM for the second.

Compared with `CNCCC(c1ccccc1)n1cc(NC(=O)c2n[nH]c3c2CCC(C)(C)C3)cn1` (single isomer, unassigned) [Example 39a, 6,6-dimethyl-N-(1-(3-(methylamino)-1-phenylpropyl)-1H-pyrazol-4-yl)-4,5,6,7-tetrahydro-1H-indazole-3-carboxamide], `CC1(C)CCc2c(C(=O)Nc3cnn(C(CCN)c4ccccc4)c3)n[nH]c2C1` (single isomer, unassigned) [Example 42a, N-(1-(3-amino-1-phenylpropyl)-1H-pyrazol-4-yl)-6,6-dimethyl-4,5,6,7-tetrahydro-1H-indazole-3-carboxamide] is 14-fold higher in Ki: 0.7 nM for the first, 10 nM for the second. The first binds more tightly here.

Compared with `CNCCC(c1ccccc1)n1cc(NC(=O)c2n[nH]c3c2CCC(C)(C)C3)cn1` (single isomer, unassigned) [Example 39b, 6,6-dimethyl-N-(1-(3-(methylamino)-1-phenylpropyl)-1H-pyrazol-4-yl)-4,5,6,7-tetrahydro-1H-indazole-3-carboxamide], `CC1(C)CCc2c(C(=O)Nc3cnn(C(CCN)c4ccccc4)c3)n[nH]c2C1` (single isomer, unassigned) [Example 42b, N-(1-(3-amino-1-phenylpropyl)-1H-pyrazol-4-yl)-6,6-dimethyl-4,5,6,7-tetrahydro-1H-indazole-3-carboxamide] is 6.7-fold lower in Ki: 6 nM for the first, 0.9 nM for the second.

Compared with `CC1(C)CCc2c(C(=O)Nc3cnn(C(c4ccccc4)C4(F)CCNCC4)c3)n[nH]c2C1` (single isomer, unassigned) [Example 44a, N-(1-((4-fluoropiperidin-4-yl)(phenyl)methyl)-1H-pyrazol-4-yl)-6,6-dimethyl-4,5,6,7-tetrahydro-1H-indazole-3-carboxamide], `CC1(C)CCc2c(C(=O)Nc3cnn(C(c4ccccc4)C4(F)CNC4)c3)n[nH]c2C1` (single isomer, unassigned) [Example 49a, N-(1-((3-fluoroazetidin-3-yl)(phenyl)methyl)-1H-pyrazol-4-yl)-6,6-dimethyl-4,5,6,7-tetrahydro-1H-indazole-3-carboxamide] is 1.7-fold higher in Ki: 6 nM for the first, 10 nM for the second. The first binds more tightly here.

First: CC1(C)CCc2c(C(=O)Nc3cnn(C(c4ccccc4)C4(F)CCNCC4)c3)n[nH]c2C1 (single isomer, unassigned) [Example 44b, N-(1-((4-fluoropiperidin-4-yl)(phenyl)methyl)-1H-pyrazol-4-yl)-6,6-dimethyl-4,5,6,7-tetrahydro-1H-indazole-3-carboxamide]
Second: CC1(C)CCc2c(C(=O)Nc3cnn(C(c4ccccc4)C4(F)CNC4)c3)n[nH]c2C1 (single isomer, unassigned) [Example 49b, N-(1-((3-fluoroazetidin-3-yl)(phenyl)methyl)-1H-pyrazol-4-yl)-6,6-dimethyl-4,5,6,7-tetrahydro-1H-indazole-3-carboxamide]
The Ki of the first is 10-fold lower: 0.2 nM for the first, 2 nM for the second. The first binds more tightly here.

Going from `Cc1cccc(C(C2CNC2)n2cc(NC(=O)c3n[nH]c4c3CCC(C)(C)C4)cn2)c1` (single isomer, unassigned) [Example 47a, N-(1-(azetidin-3-yl(m-tolyl)methyl)-1H-pyrazol-4-yl)-6,6-dimethyl-4,5,6,7-tetrahydro-1H-indazole-3-carboxamide] to `O=C(Nc1cnn(Cc2ccccc2)c1)c1n[nH]c2c1CCC1(CCCO1)C2` (single isomer, unassigned) [Example 50a, N-(1-benzyl-1H-pyrazol-4-yl)-1′,4,4′,5,5′,7′-hexahydro-3H-spiro[furan-2,6′-indazole]-3′-carboxamide], the Ki rises from 2 nM to 260 nM (130-fold).

Going from `Cc1cccc(C(C2CNC2)n2cc(NC(=O)c3n[nH]c4c3CCC(C)(C)C4)cn2)c1` (single isomer, unassigned) [Example 47b, N-(1-(azetidin-3-yl(m-tolyl)methyl)-1H-pyrazol-4-yl)-6,6-dimethyl-4,5,6,7-tetrahydro-1H-indazole-3-carboxamide] to `O=C(Nc1cnn(Cc2ccccc2)c1)c1n[nH]c2c1CCC1(CCCO1)C2` (single isomer, unassigned) [Example 50b, N-(1-benzyl-1H-pyrazol-4-yl)-1′,4,4′,5,5′,7′-hexahydro-3H-spiro[furan-2,6′-indazole]-3′-carboxamide], the Ki rises from 9 nM to 620 nM (69-fold).
